# Measurements from PMC5011932, “Comparative pharmacokinetics and pharmacodynamics of intravenous artelinate versus artesunate in uncomplicated Plasmodium coatneyi-infected rhesus monkey model” (Malaria Journal, 2016).
# Several values for one entry are separate records, joined by “and”; a condition that tells them apart may be missing. Equal entries are not always repeated. Where two headings read alike, the source gives them in different places.
# Tests used:
# [1] = rhesus monkey, in vivo
# Description: (§1) These doses were chosen as the minimal effective doses (from previous model development and validation studies, unpublished data) and blood was collected for pharmacokinetic analysis. After a week wash-out and recovery period, P. coatneyi (1 mL of >50,000 parasitized RBCs per microlitre or 5 × 10^6 RBC with a 1 % parasitaemia) were inoculated from a donor monkey into all the monkeys. The treatment was initiated at day 6 after inoculation at a parasitaemia ≥3 % or >200,000 parasites μL^−1 when the cohort of animals was minimally symptomatic. Drugs were given for 3 days with a loading dose initially followed by ½ of the first dose on the 2nd and 3rd days.
# (§2) Blood was collected for pharmacokinetic/pharmacodynamics (PK/PD) analysis after the first dose only due to rapid clearance of artemisinin derivatives. Heparinized blood was collected at 0, 5, 20, 40 min, 1, 3, and 6 h post-dose and plasma samples were separated within 2 h by centrifugation (1500g, 10 min). Aliquots of samples were made for simultaneous measurement by HPLC [16] and bioassay [14], and stored at −80 °C until analysis. All glassware was silanized before use with a 0.5 % aqueous solution (v/v) of Pierce Aquasil (Rockford, IL, USA) according to the manufacturer’s recommended procedure. Solid-phase extraction was performed on C-18 elution cartridge (3.0 ml, J.T. Baker Co.) using a VAC ELUTE SPS24 sample processing station (Analytichem International, Harbour City, CA, USA). The cartridge was preconditioned by sequential washing with 2.5 ml acetonitrile, 2.5 ml methanol and 2.5 ml water. One ml of distilled water was added to the cartridge before adding plasma sample (0.5 ml). Then, the cartridge was washed with 2.5 ml distilled water, 2.5 ml of 0.05 % H3PO4 (pH 4.5) and 2.5 ml of 20 % acetonitrile and completely dried by closing the vacuum for 15 min. The analytes were collected by eluting with 0.5 ml methanol three times and then with 0.5 ml 90:10 n-butyl chloride: ethyl acetate twice. The organic phases were pooled. The combined organic phases were then evaporated to dryness under a stream of nitrogen at room temperature. Extraction residues were reconstituted with 50:50 ethanol: water (0.3 ml), at least 16 h before injection. The injection volume was 100 µl for all samples.
# (§3) The plasma concentration of parent drugs, AL and AS, and their primary metabolites, DHA and 2-hydroxyartelinate (OHAL) respectively, were measured by HPLC with electrochemical detection in reductive mode (HPLC-ECD) [16], which was the only method for artemisinin compounds then (Additional files 1 and 2).
# (§4) HPLC with reductive electrochemical detection was performed using a model BAS 200B liquid chromatography (Bioanalytical Systems, Inc., West Lafayette, Indiana, USA). A Nova-Pak® C18 (3.9 × 150 mm, Waters Corporation, Milford, MA, USA) was used with 40 % acetonitrile in sodium acetate buffer (pH 3.6) as mobile phase. Detection was performed using a thin dual-layer glassy carbon electrode run in parallel mode at a potential of −1.0 V versus Ag/AgCl. The system was operated at the following temperatures: mobile phase 35 °C, column and detector oven 30 °C, cell 31 °C with the flow rate of 1.5 mL min^−1. Artemisinin (ART) was used as an internal standard. Samples were injected via Gilson model 231 XL sampling injector equipped with a 100 µL loop, a Gilson model 401 dilutor/pipettor, a sampler controller keypad (Gilson Medical Electronics, Middleton, WI, USA), and a Valco electrically actuated switching valve (Valco Instrument Co. Inc) was used. This system automatically deoxygenated and injected sample, which permits the high sample throughput associated with automated injection. Data were acquired and analysed using a Millennium^32 Chromatography Manager (Waters Corporation, Milford, MA, USA).
# [2] = Plasma pharmacokinetics by HPLC-ECD after IV dose in rhesus monkeys; settings: for concentration at 0.08 h / concentration at 0.33 h / concentration at 0.67 h / concentration at 1 h / concentration at 3 h / concentration at 6 h: intravenous, 8 mg kg^-1, Plasma concentration; for AUC(0-t): AUC 0-20, mean; for half-life: t 1/2, z
# Description: as §1, §2, §3, §4
# [3] = Deaths and tolerability in P. coatneyi-infected rhesus monkeys; type: in vivo, rhesus macaques (Macaca mulatta); settings: for Deaths: infected rhesus, IV AL 11.8 mg kg^−1
# [4] = tested on: Plasmodium coatneyi; test: In vivo pharmacodynamics (parasite clearance) in uncomplicated P. coatneyi-infected splenectomized rhesus monkey model
# Description: Twenty-two adult colony-born, Indian-origin rhesus macaques (Macaca mulatta) naïve monkeys were splenectomized and recovered well more than 1 month prior to entering the study. […] Twenty-two animals were randomized to two experiments of 11 monkeys. […] The control monkeys received intramuscular quinine treatment and the experimental animals received intravenous artemisinin candidates.
# Based on our previous model validation, blood smears were performed to detect malaria parasites starting prior to inoculation on day 0 and continued daily (0700–0800 h). The monkeys were physically restrained in the squeeze cage restraint apparatus and approximately 0.1–0.2 ml whole blood was collected from each monkey by lancet puncture of the lateral auricular vein. Thick and thin smears were made on the same microscope glass slide and subsequently fixed in methanol and stained with Giemsa. When the smears were positive, white blood cell count (WBC) and/or red blood cell count (RBC) were also performed using automated haematology analyzer Sysmex K800 to calculate parasite density. Haematocrits were checked as needed. At study days 6–12, additional blood samples were obtained from all animals in the afternoon (1500–1600 h) to monitor parasitaemia levels. Daily blood smears were continued until two consecutive days with negative smears. Then the smear monitoring schedule was reduced to two times weekly for 2 weeks and then weekly for 6 weeks after completion of the last treatment.
# Blood smear staining and parasitaemia determination took about 2 h. […] The control monkey received quinine treatment and the ten experimental animals received intravenous artemisinin derivative candidate.
# After a week wash-out and recovery period, P. coatneyi (1 mL of >50,000 parasitized RBCs per microlitre or 5 × 10^6 RBC with a 1 % parasitaemia) were inoculated from a donor monkey into all the monkeys. The treatment was initiated at day 6 after inoculation at a parasitaemia ≥3 % or >200,000 parasites μL^−1 when the cohort of animals was minimally symptomatic. Drugs were given for 3 days with a loading dose initially followed by ½ of the first dose on the 2nd and 3rd days.
# Blood smear were collected once daily in the morning. Once positive parasitaemia was observed and reached 2000 parasites μL^−1, blood smears were collected twice, in the morning and afternoon. Blood for slides preparation were collected from ear for thick and thin smear preparation. Blood films on glass slides were air dried, fixed with 100 % methanol, stained with Giemsa, and read under ×100 magnification oil emersion for parasite determination.
# First, a thick smear was performed for parasite detection by reading the slides at least 50 fields under ×100 magnification oil emersion.
# [5] = parameters: method as in PMID 16860356, PMID 16126619; settings: rats; cited from earlier work
# [6] = tested on: P. falciparum clone (W2); test: Ex vivo Plasmodium falciparum-based bioassay (BA) of rhesus plasma, effect kinetics (ePD) as DHA equivalents; type: cell-based; settings: for Bioactivity %AUC20 / Bioactivity Cl: mean
# Description: Blood was collected for pharmacokinetic/pharmacodynamics (PK/PD) analysis after the first dose only due to rapid clearance of artemisinin derivatives. Heparinized blood was collected at 0, 5, 20, 40 min, 1, 3, and 6 h post-dose and plasma samples were separated within 2 h by centrifugation (1500g, 10 min). Aliquots of samples were made for simultaneous measurement by HPLC [16] and bioassay [14], and stored at −80 °C until analysis.
# The plasma anti-malarial activities of the artemisinin derivatives were measured using a previously published method [14]. […] After centrifugation, the supernatant (100 µL) was transferred to a 96-well flat bottom plate. Twofold serial dilutions were then made using heat inactivated pooled control serum (human:rhesus = 1:1). A suspension of malaria (W2 clone) infected erythrocytes was added to each well. The microtitre plate was placed into a gas-tight plexiglass chamber, flushed with a gas mixture of 90 % CO2, 5 % O2, and 5 % N2, and placed into an incubator (37 °C). Following 24 h incubation, the plate was removed from the chamber and pulsed with [^3H]-hypoxanthine solution to each well and incubated for another 18–20 h before harvesting. The incorporation of [^3H]-hypoxanthine by the parasites in each well was determined by counting in a scintillation counter.
# A dose–response curve for each plasma sample was constructed by plotting [^3H]-hypoxanthine uptake on the Y-axis against the corresponding dilution factor on the X-axis after logarithmic transformation. The dilution factor value that inhibits parasite growth by 50 % (DF50) of each plasma sample was determined.
# [7] = DHA equivalents, infected rhesus
compound,measurement,setting,value
2-hydroxyartelinate [OHAL],"t1/2, metabolite (M)",[1],42.2 min
"C[C@H]1[C@@H](O)O[C@@H]2O[C@@]3(C)CC[C@H]4[C@H](C)CC[C@@H]1[C@@]24OO3 [DHA, dihydroartemisinin]",Time of highest level post-dose,[2]; after IV AS,5 min
same,%AUC20,"[2]; mean, healthy rhesus",23.8%
same,%AUC20,"[2]; mean, infected rhesus",27.0%
same,concentration at 0.08 h,"[2]; rhesus monkey, plasma, mean, 0.08 h, healthy rhesus, after IV AL 11.8 or AS 8.0 mg/kg",7.89 µM
same,concentration at 0.08 h,"[2]; rhesus monkey, plasma, mean, 0.08 h, infected rhesus, after IV AL 11.8 or AS 8.0 mg/kg",6.74 µM
same,concentration at 0.33 h,"[2]; rhesus monkey, plasma, mean, 0.33 h, healthy rhesus",6.75 µM
same,concentration at 0.33 h,"[2]; rhesus monkey, plasma, mean, 0.33 h, infected rhesus",5.92 µM
same,concentration at 0.67 h,"[2]; rhesus monkey, plasma, mean, 0.67 h, healthy rhesus",4.51 µM
same,concentration at 0.67 h,"[2]; rhesus monkey, plasma, mean, 0.67 h, infected rhesus",4.21 µM
same,concentration at 1 h,"[2]; rhesus monkey, plasma, mean, 1.0 h, healthy rhesus",3.52 µM
same,concentration at 1 h,"[2]; rhesus monkey, plasma, mean, 1.0 h, infected rhesus",2.68 µM
same,concentration at 3 h,"[2]; rhesus monkey, plasma, mean, 3.0 h, healthy rhesus",0.31 µM
same,concentration at 3 h,"[2]; rhesus monkey, plasma, mean, 3.0 h, infected rhesus",0.16 µM
same,concentration at 6 h,"[2]; rhesus monkey, plasma, mean, 6.0 h, healthy rhesus",0 nM
same,concentration at 6 h,"[2]; rhesus monkey, plasma, mean, 6.0 h, infected rhesus",0 nM
same,AUC(0-t),"[2]; rhesus monkey, plasma, iv, 8 mg/kg, healthy rhesus",2.17 µM·h
same,AUC(0-t),"[2]; rhesus monkey, plasma, iv, 8 mg/kg, infected rhesus",1.87 µM·h
same,AUC(0-inf),"[2]; rhesus monkey, plasma, iv, 8 mg/kg, AUC(0-inf), mean, healthy rhesus",9.28 µM·h
same,AUC(0-inf),"[2]; rhesus monkey, plasma, iv, 8 mg/kg, AUC(0-inf), mean, infected rhesus",7.45 µM·h
same,Cmax,"[2]; rhesus monkey, plasma, iv, 8 mg/kg, Cmax, mean, P. coatneyi infected rhesus, IV AL/Lys 11.8 or AS/Na 8 mg/kg, analyte = label",6.85 µM
same,Cmax,"[2]; rhesus monkey, plasma, iv, 8 mg/kg, Cmax, mean, healthy rhesus, IV AL/Lys 11.8 or AS/Na 8 mg/kg, analyte = label",8.1 µM
same,half-life,"[2]; rhesus monkey, plasma, iv, 8 mg/kg, mean, healthy rhesus",35.9 min
same,half-life,"[2]; rhesus monkey, plasma, iv, 8 mg/kg, mean, infected rhesus",30 min
"CC1CCC2C(C)C(OCc3ccc(C(=O)O)cc3)OC3OC4(C)CCC1C32OO4.CC1CCC2C(C)C(OCc3ccc(C(=O)O)cc3)OC3OC4(C)CCC1C32OO4.O (stereo not drawn) [IV AL, 4-(10′ dihyro-artemisinin-oxymethyl) benzoic acid hemihydrate]","Plasma concentration, mean","[2]; 0.08 h, healthy rhesus, after IV AL 11.8 or AS 8.0 mg/kg",61.58 µM
same,"Plasma concentration, mean","[2]; 0.08 h, infected rhesus, after IV AL 11.8 or AS 8.0 mg/kg",62.96 µM
same,"Plasma concentration, mean","[2]; 0.33 h, healthy rhesus",43.27 µM
same,"Plasma concentration, mean","[2]; 0.33 h, infected rhesus",46.68 µM
same,"Plasma concentration, mean","[2]; 0.67 h, healthy rhesus",26.12 µM
same,"Plasma concentration, mean","[2]; 0.67 h, infected rhesus",26.79 µM
same,"Plasma concentration, mean","[2]; 1.0 h, healthy rhesus",16.73 µM
same,"Plasma concentration, mean","[2]; 1.0 h, infected rhesus",21.04 µM
same,"Plasma concentration, mean","[2]; 3.0 h, healthy rhesus",0.68 µM
same,"Plasma concentration, mean","[2]; 3.0 h, infected rhesus",1.24 µM
same,"Plasma concentration, mean","[2]; 6.0 h, healthy rhesus",0 µM
same,"Plasma concentration, mean","[2]; 6.0 h, infected rhesus",0.05 µM
same,DHA in plasma after IV AL,[2]; healthy or infected monkeys,no DHA was found in plasma
same,"AUC0–20, parent drug",[2]; infected rhesus,925 µM·min
same,"AUC0–∞, parent drug",[2]; infected rhesus,3706 µM·min
same,Cmax,"[2]; mean, P. coatneyi infected rhesus, IV AL/Lys 11.8 or AS/Na 8 mg/kg, analyte = label",61.5 µM
same,%AUC20,"[2]; mean, healthy rhesus",33.4%
same,AUC 0-20,"[2]; mean, healthy rhesus",940 µmol·min/L
same,AUC(0-inf),"[2]; mean, healthy rhesus","3,039 µmole min L^-1"
same,Cl,"[2]; mean, healthy rhesus",0.45 L hr^-1 kg ^-1
same,Vz,"[2]; mean, healthy rhesus",0.26 L kg ^-1
same,"t 1/2, z","[2]; mean, healthy rhesus",25.3 min
same,Cmax,"[2]; mean, healthy rhesus, IV AL/Lys 11.8 or AS/Na 8 mg/kg",61.6 µM
same,%AUC20,"[2]; mean, infected rhesus",31.5%
same,AUC 0-20,"[2]; mean, infected rhesus",954 µmol·min/L
same,AUC(0-inf),"[2]; mean, infected rhesus","3,392 µmole min L^-1"
same,Cl,"[2]; mean, infected rhesus",0.43 L hr^-1 kg ^-1
same,Vz,"[2]; mean, infected rhesus",0.28 L kg ^-1
same,"t 1/2, z","[2]; mean, infected rhesus",29.6 min
same,"Vz, parent","[2]; median, infected rhesus",0.259 L/kg
same,% AUC0–20 / AUC0–∞,"[2]; parent drug, infected rhesus",24.6%
same,Cmax,"[2]; read-out: Cmax, parent drug, infected rhesus",60.2 µM
same,Deaths,[3],two deaths in the infected animals within 2.5 h
same,Deaths,[3]; listed as AL,two died following AL regimen before parasite clearance
same,Tolerability,[3]; other animals in the experiment,well tolerated by the other animals
same,"Parasite/µL, mean",[4]; 0.29 day post-dose,"704,770 Parasite/µL"
same,Parasite Reduction,"[4]; 0.29 day post-dose, IV AL experiment (mean; IM QN = its control monkey)",20.4%
same,"Parasite/µL, mean",[4]; 1.00 day post-dose,"124,294 Parasite/µL"
same,Parasite Reduction,"[4]; 1.00 day post-dose, IV AL experiment",82.2%
same,"Parasite/µL, mean",[4]; 1.29 day post-dose,"32,703 Parasite/µL"
same,Parasite Reduction,"[4]; 1.29 day post-dose, IV AL experiment",95.2%
same,"Parasite/µL, mean",[4]; 2.00 day post-dose,"6,978 Parasite/µL"
same,Parasite Reduction,"[4]; 2.00 day post-dose, IV AL experiment",98.9%
same,"Parasite/µL, mean",[4]; 2.29 day post-dose,"3,976 Parasite/µL"
same,Parasite Reduction,"[4]; 2.29 day post-dose, IV AL experiment",99.4%
same,"Parasite/µL, mean",[4]; 3.00 day post-dose,895 Parasite/µL
same,Parasite Reduction,"[4]; 3.00 day post-dose, IV AL experiment",99.9%
same,"Parasite/µL, mean",[4]; 3.29 day post-dose,377 Parasite/µL
same,Parasite Reduction,"[4]; 3.29 day post-dose, IV AL experiment",99.9%
same,"Parasite/µL, mean",[4]; 4.00 day post-dose,568 Parasite/µL
same,Parasite Reduction,"[4]; 4.00 day post-dose, IV AL experiment",99.9%
same,"Parasite/µL, mean",[4]; 4.29 day post-dose,"8,704 Parasite/µL"
same,Parasite Reduction,"[4]; 4.29 day post-dose, IV AL experiment",98.5%
same,"Parasite/µL, mean",[4]; 5.00 day post-dose,"2,880 Parasite/µL"
same,Parasite Reduction,"[4]; 5.00 day post-dose, IV AL experiment",99.5%
same,"Parasite/µL, mean",[4]; 5.29 day post-dose,"1,141 Parasite/µL"
same,Parasite Reduction,"[4]; 5.29 day post-dose, IV AL experiment",99.8%
same,"Parasite/µL, mean",[4]; 6.00 day post-dose,"18,619 Parasite/µL"
same,Parasite Reduction,"[4]; 6.00 day post-dose, IV AL experiment",96.8%
same,"Parasite/µL, mean",[4]; 6.29 day post-dose,"92,458 Parasite/µL"
same,Parasite Reduction,"[4]; 6.29 day post-dose, IV AL experiment",84.4%
same,"Parasite/µL, mean",[4]; 7.00 day post-dose,"51,036 Parasite/µL"
same,Parasite Reduction,"[4]; 7.00 day post-dose, IV AL experiment",91.4%
same,PCT of individual animals,"[4]; IV AL: the only two determinable, IV AS: the two most rapid",5.3 days and 4.0 days
same,"Recrudescence, median (range, n)",[4]; in vivo,"6.5 (6–7, 2) days"
same,"R, Day (recrudescence day), mean","[4]; n 2 IV AL, n 10 IV AS",6.50 days
same,Treatment failure,[4]; parasite counts never reached zero,Six animals failed treatment
same,PC50,"[4]; range in evaluable animals (4 of 8 IV AL, 3 of 10 IV AS)",2.72 to 10.9 h
same,toxicity,[5],more toxic than AS
same,"Antimalarial activity expressed as DHA equi., mean","[6]; 0.08 h, healthy rhesus",5.69 µmol/L
same,"Antimalarial activity expressed as DHA equi., mean","[6]; 0.08 h, infected rhesus",7.58 µmol/L
same,"Antimalarial activity expressed as DHA equi., mean","[6]; 0.33 h, healthy rhesus",4.09 µmol/L
same,"Antimalarial activity expressed as DHA equi., mean","[6]; 0.33 h, infected rhesus",5.32 µmol/L
same,"Antimalarial activity expressed as DHA equi., mean","[6]; 0.67 h, healthy rhesus",2.56 µmol/L
same,"Antimalarial activity expressed as DHA equi., mean","[6]; 0.67 h, infected rhesus",3.58 µmol/L
same,"Antimalarial activity expressed as DHA equi., mean","[6]; 1.0 h, healthy rhesus",1.75 µmol/L
same,"Antimalarial activity expressed as DHA equi., mean","[6]; 1.0 h, infected rhesus",2.58 µmol/L
same,"Antimalarial activity expressed as DHA equi., mean","[6]; 3.0 h, healthy rhesus",0.07 µmol/L
same,"Antimalarial activity expressed as DHA equi., mean","[6]; 3.0 h, infected rhesus",0.19 µmol/L
same,"Antimalarial activity expressed as DHA equi., mean","[6]; 6.0 h, healthy rhesus",0 µmol/L
same,"Antimalarial activity expressed as DHA equi., mean","[6]; 6.0 h, infected rhesus",0 µmol/L
same,"AUC0–20, ePD",[6]; [7],115 µM·min
same,"AUC0–∞, ePD",[6]; [7],426 µM·min
same,Bioactivity %AUC20,[6]; healthy rhesus,31.7%
same,Bioactivity Cl,[6]; healthy rhesus,4.75 L hr^-1 kg ^-1
same,Bioactivity %AUC20,[6]; infected rhesus,27.7%
same,Bioactivity Cl,[6]; infected rhesus,3.08 L hr^-1 kg ^-1
